Measurements from ChEMBL document CHEMBL1201862, “PubChem BioAssay data set” (2004).
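Five concentrations, 48 hours, 96-well plates. The concentration for 50% growth inhibition is given as GI50.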 The source made the active and inactive calls. No stated cut-off is given here; in the data, active = GI50 up to about 1.1 µM and inactive = higher.

What was measured:
Test in all cases: NCI tumour cell line growth inhibition, 48 h
786-0 = test system: 786-0
HT-29 = test system: HT-29
A549 = test system: A549
RPMI-8226 = test system: RPMI-8226
HOP-62 = test system: HOP-62
SK-MEL-28 = test system: SK-MEL-28
U-251 = test system: U-251
NCI-H23 = test system: NCI-H23
SK-MEL-2 = test system: SK-MEL-2
OVCAR-8 = test system: OVCAR-8
MDA-MB-231 = test system: MDA-MB-231
CCRF-CEM = test system: CCRF-CEM
ACHN = test system: ACHN
OVCAR-4 = test system: OVCAR-4
Malme-3M = test system: Malme-3M
MOLT-4 = test system: MOLT-4
SNB-75 = test system: SNB-75
UO-31 = test system: UO-31
MDA-N = test system: MDA-N

Measured: GI50

CC(SC(=S)N1CCOCC1)C(=O)Nc1nnc(-c2ccccc2)o1 (stereo unspecified)
inactive: 786-0 83.2 µM | HT-29 61.1 µM | A549 70 µM | RPMI-8226 43.1 µM | HOP-62 > 100 µM | SK-MEL-28 > 100 µM | U-251 > 100 µM | NCI-H23 > 100 µM | SK-MEL-2 > 100 µM | OVCAR-8 > 100 µM | MDA-MB-231 > 100 µM | CCRF-CEM 4.23 µM | ACHN 97.7 µM | OVCAR-4 > 100 µM | Malme-3M > 100 µM | MOLT-4 36.8 µM | SNB-75 > 100 µM | UO-31 53.2 µM | MDA-N > 100 µM

CCO/C=C(\C(=O)OC)S(=O)(=O)c1ccc(C)cc1
inactive: 786-0 > 100 µM | HT-29 > 100 µM | A549 > 100 µM | RPMI-8226 > 100 µM | HOP-62 > 100 µM | SK-MEL-28 > 100 µM | U-251 > 100 µM | NCI-H23 > 100 µM | SK-MEL-2 > 100 µM | OVCAR-8 > 100 µM | MDA-MB-231 > 100 µM | CCRF-CEM > 100 µM | ACHN > 100 µM | OVCAR-4 > 100 µM | Malme-3M > 100 µM | MOLT-4 > 100 µM | SNB-75 > 100 µM | UO-31 61.7 µM | MDA-N > 100 µM

CCOC(=O)CNC(=O)CNC(=O)CNC(=O)CNNc1c(OCc2ccccc2)c(=O)c1=O
inactive: 786-0 > 100 µM | HT-29 > 100 µM | A549 > 100 µM | RPMI-8226 > 100 µM | HOP-62 > 100 µM | SK-MEL-28 > 100 µM | U-251 > 100 µM | NCI-H23 > 100 µM | SK-MEL-2 > 100 µM | OVCAR-8 > 100 µM | MDA-MB-231 > 100 µM | CCRF-CEM > 100 µM | ACHN > 100 µM | OVCAR-4 > 100 µM | Malme-3M > 100 µM | MOLT-4 > 100 µM | SNB-75 > 100 µM | UO-31 > 100 µM | MDA-N > 100 µM

COc1cc(C2SCC(=O)N2c2ccc(-c3ccc(-n4c(-c5ccccc5)nc5ccccc5c4=O)cc3)cc2)ccc1O (stereo unspecified)
inactive: 786-0 29.6 µM | HT-29 39.2 µM | A549 > 100 µM | RPMI-8226 > 100 µM | HOP-62 > 100 µM | SK-MEL-28 > 100 µM | U-251 44.2 µM | NCI-H23 > 100 µM | SK-MEL-2 > 100 µM | OVCAR-8 96.6 µM | MDA-MB-231 > 100 µM | CCRF-CEM 42.4 µM | ACHN > 100 µM | OVCAR-4 37.9 µM | Malme-3M > 100 µM | MOLT-4 37 µM | SNB-75 15 µM | UO-31 24.4 µM | MDA-N 80 µM
